The assay concerns the target T1, Histone-lysine N-methyltransferase NSD2 (Homo sapiens, UniProt O96028).
T1 sequence (O96028 whole entry): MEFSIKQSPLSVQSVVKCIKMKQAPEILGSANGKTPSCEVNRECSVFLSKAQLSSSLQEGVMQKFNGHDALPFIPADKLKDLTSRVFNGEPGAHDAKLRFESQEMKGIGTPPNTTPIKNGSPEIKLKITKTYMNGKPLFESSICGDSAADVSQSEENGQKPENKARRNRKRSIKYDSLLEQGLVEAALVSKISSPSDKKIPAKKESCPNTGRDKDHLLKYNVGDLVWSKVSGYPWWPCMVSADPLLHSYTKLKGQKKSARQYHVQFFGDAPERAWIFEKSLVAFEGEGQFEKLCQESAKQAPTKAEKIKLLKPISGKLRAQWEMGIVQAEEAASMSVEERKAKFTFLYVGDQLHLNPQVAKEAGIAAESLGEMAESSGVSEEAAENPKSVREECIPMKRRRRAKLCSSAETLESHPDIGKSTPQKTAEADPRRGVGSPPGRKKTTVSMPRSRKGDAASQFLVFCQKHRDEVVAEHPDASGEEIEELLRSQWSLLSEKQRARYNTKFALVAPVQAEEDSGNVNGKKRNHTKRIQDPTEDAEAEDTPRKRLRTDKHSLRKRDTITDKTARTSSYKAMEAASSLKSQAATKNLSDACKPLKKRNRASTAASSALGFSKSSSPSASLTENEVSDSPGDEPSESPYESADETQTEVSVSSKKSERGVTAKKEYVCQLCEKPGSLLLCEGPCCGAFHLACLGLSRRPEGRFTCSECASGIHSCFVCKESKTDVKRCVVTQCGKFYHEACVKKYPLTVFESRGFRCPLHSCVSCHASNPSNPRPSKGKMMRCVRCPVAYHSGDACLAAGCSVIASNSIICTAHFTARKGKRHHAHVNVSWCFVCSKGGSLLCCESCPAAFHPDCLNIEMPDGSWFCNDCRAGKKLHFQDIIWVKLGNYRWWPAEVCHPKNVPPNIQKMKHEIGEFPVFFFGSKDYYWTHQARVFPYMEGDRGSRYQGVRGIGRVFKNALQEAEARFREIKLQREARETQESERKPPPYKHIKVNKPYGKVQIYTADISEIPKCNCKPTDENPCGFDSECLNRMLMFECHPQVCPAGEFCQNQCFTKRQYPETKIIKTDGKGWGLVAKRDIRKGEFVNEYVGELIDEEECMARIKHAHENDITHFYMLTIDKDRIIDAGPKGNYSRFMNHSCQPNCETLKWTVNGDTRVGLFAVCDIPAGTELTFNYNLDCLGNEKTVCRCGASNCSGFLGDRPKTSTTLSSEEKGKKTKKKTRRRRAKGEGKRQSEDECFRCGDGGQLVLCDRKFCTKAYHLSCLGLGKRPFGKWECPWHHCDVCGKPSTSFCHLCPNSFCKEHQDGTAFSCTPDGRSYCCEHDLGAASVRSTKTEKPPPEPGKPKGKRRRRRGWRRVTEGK
Format: biochemical.

Activity calls are given as the source filed them. Rule as the data show it: actives have a measured AC50 and inactives only a lower limit.

The term AC50 denotes the concentration at which the activity in the assay is half-maximal. In the case of `COc1ccc(CC2=CC(=O)c3ccccc3C2=O)cc1`, the AC50 was 10.5 µM (active).

`c1coc(-c2nnc(-c3ccco3)nn2)c1`: the AC50 is 5.23 µM (active).
